Data on 7 molecules can be found in US20210322404A1, “FGFR REGULATION FOR THE TREATMENT OF VIRAL INFECTIONS” (ETH ZURICH, priority 2016, published 2021).

“Also recorded” adds a separate entry of the source.

In assay [1] the test system is interferon-stimulated genes (ISGs). Briefly: ISG expression in primary mouse keratinocytes pre-incubated with inhibitors, then treated with FGF7 (qRT-PCR). The assay is classed as cell-based. Particulars: primary keratinocytes from wild-type mice; inhibitor 3 h (SB203580 5 μM, NSC23766 50 μM, AZD4547 1 μM), then FGF7 10 ng/ml 6 h. For orientation: In qPCR the cycle at which signal appears reflects the starting amount.

The subject of a further assay is HSV-1. Briefly: HSV-1 infection of HaCaT cells, virus load. It is filed as cell-based, Herpes Simplex Virus type 1. Particulars: HaCaT; for amount and size of Glyc-D-positive fused cells (immunofluorescence): HSV-1; for amount and size of Glyc-D-positive fused cells (immunofluorescence) / Glyc-B DNA levels (viral load, qPCR relative to human β-actin gene): NSC23766 20 μM, AZD4547 1 μM; for Glyc-B DNA levels (viral load, qPCR relative to human β-actin gene): HSV-1 MOI=0.5, +/- FGF7 10 ng/ml, BGJ398 3.5 μM. The method, then:
FIGS. 5A-C relate to HaCaT cells infected with HSV-1 (MOI=0.5) after overnight serum starvation, either alone or in combination with FGF7 (10 ng/ml) or IFNα (1000U/ml). 24 h after infection, virus load was determined by qPCR for the HSV-1 Glycoprotein B (Glyc-B) gene relative to the human β-actin gene (A) or visualized by immunofluorescence staining for HSV-1 Glycoprotein D (Glyc-D) (red) (B). The Glyc-B/β-actin gene ratio in HSV-1 infected cells was set to 1. Cell nuclei were stained with DAPI (blue). Magnification bar: 200 μm. (C) Transmission microscopy images of HaCaT cells taken 48 h after HSV-1 infection. […] Magnification bar: 80 μm. Representative data out of four experiments are shown.
FIGS. 5 D & E relate to overnight-starved HaCaT cells infected with HSV-1 (MOI=0.5) alone or in combination with IFNα (1000 U/ml), IFNα and FGF7 (10 ng/ml) (D); or FGF7 at different concentrations (E).
FIG. 5F pertains to serum-starved HaCaT cells that were infected with HSV-1 (MOI 0.5-1). After 4 h, infected cells were washed with PBS, followed by addition of fresh serum-free culture medium containing FGF7 (10 ng/ml).
FIGS. 5G-K pertains to overnight-starved HaCaT cells infected with HSV-1 (MOI=0.5) alone or in combination with FGF7, which was added at the indicated time points. 12 h after infection, cells were analyzed for Glyc-B DNA (H) and, RSAD2 and IRF7 mRNA levels by qPCR/qRT-PCR (I) or for ISG protein levels by western blotting (K). Vinculin was used as loading control.
FIGS. 7A-C relate to serum-starved HaCaT cells that were infected with HSV-1 in the presence or absence of FGF7 (10 ng/ml), NSC23766 (20 μM), the FGFR kinase inhibitors AZD4547 (1 μM) and BGJ398 (3.5 μM) (A) or IFNα (1000 U/ml) (B). […] Magnification bar: 500 μm. The Glyc-D positive area was quantified using digital pixel measurements (C, right). A representative out of two experiments is shown.
Frozen sections from mouse back skin were fixed with cold methanol, and unspecific binding sites were blocked with PBS/2% bovine serum albumin (BSA) (Sigma)/1% fish skin gelatin (Sigma)/0.05% Triton X-100 (Carl Roth GmbH, Karlsruhe, Germany) for 2 h at room temperature. Samples were then incubated overnight at 4° C. with anti-IRF7 or anti-K14 antibodies diluted in the same buffer. After three washes with 1×PBS/0.1% Tween 20 (Carl Roth GmbH), slides were incubated at room temperature (RT) for 4 h with secondary antibodies (AF555-conjugated anti-rabbit IgG and AF488-conjugated anti-mouse IgG) and DAPI (4′,6-diamidino-2-phenylindole dihydrochloride) (Sigma) as counter-stain, washed again and mounted with Mowiol (Hoechst, Frankfurt, Germany). Stained sections were photographed with a Leica SP1-2 confocal microscope equipped with a 63×0.6-1.32 NA (Iris) PL Apo Oil objective. For data acquisition the Leica Confocal Software (Leica, Wetzlar, Germany) was used. For immunofluorescence staining of cultured cells, they were washed with PBS and either fixed for 5 min with cold methanol for staining with antibodies against ZO-1 and IRF7, or with 4% paraformaldehyde (PFA) (Sigma) for 20 min at RT for Glyc-D staining. PFA-fixed cells were then incubated for 10 min with 0.5% Triton X-100 in PBS. After 1 h blocking in PBS containing 2% BSA, cells were stained with the primary antibodies for 1 h in the same blocking buffer. After three washes with PBS, cells were incubated with the secondary antibodies (AF555-conjugated anti-mouse IgG, AF488-conjugated anti-mouse IgG and AF555-conjugated anti-rabbit IgG) and DAPI.

The next assay concerns HCV. The conditions noted are these: hepatic / hepatoma cells, Van et al.; cited from earlier work.
Assay [2] relates to interferon-stimulated response element (ISRE). The assay can be described thus: ISRE luciferase reporter assay in immortalized mouse keratinocytes. The assay is classed as cell-based. The conditions noted are these: FGF7 10 ng/ml and/or IFNα 1000 U/ml, 12 h. The method, then: FIG. 3C pertains to immortalized mouse keratinocytes that were co-transfected with TK-Renilla and pGL4.45[luc2P/ISRE/Hygro] plasmids, starved in serum-free medium and then treated with FGF7 (10 ng/ml) and/or IFNα (1000 U/ml) for 12 h. Firefly luciferase activity was determined in cell lysates and normalized to Renilla luciferase activity (transfection control). The mean value in vehicle-treated cells (CTRL) was set to 1.
Mouse keratinocytes and HEK 293 cells were transfected with the expression vector for TK-Renilla and the expression vector pGL4.45[luc2P/ISRE/Hygro] (Promega). The latter contains five copies of an ISRE that drives expression of the luciferase reporter gene. Cells were seeded into 12-well plates, cultured for 24 h, and transfected using Lipofectamine 2000 […]. They were then starved in serum-free medium, treated with FGF7 (10 ng/ml) and/or IFNα (1000 U/ml) for 12 h, lysed and analyzed using a dual-luciferase assay system (Promega) as described by the manufacturer. Relative light units were measured in a GloMax 96 microplate luminometer with dual injectors (Promega).

The next assay has as its system LCMV. The assay is classed as cell-based, Lymphocytic Choriomeningitis Virus. The conditions noted are these: HaCaT, LCMV MOI 0.05 or 0.2.
In assay [3] the test system is interferon-stimulated genes (ISGs). Briefly: ISG expression in human keratinocytes (HaCaT, primary foreskin) treated with FGF7, FGF10 and/or IFNα (qRT-PCR). The assay is classed as cell-based. The conditions noted are these: HaCaT, 10 ng/ml, 6 h. As for the experimental part: FIG. 2F relates to serum-starved immortalized human keratinocytes (HaCaT cell line) that were treated for 6 h with FGF7, FGF10 (both 10 ng/ml) or vehicle (CTRL). RNA was analyzed by qRT-PCR for the expression of the indicated ISGs relative to RPLP0. Mean expression levels in CTRL cells were set to 1. Representative data from three experiments are shown. Scatter plot and mean values are shown in (A-D). Each dot represents a biological replicate.
FIGS. 3E and F pertain to confluent human primary foreskin keratinocytes and (E) or HaCaT cells (F) that were serum-starved for 24 h and treated with FGF7 (10 ng/ml) and/or IFNα (500 U/ml) for 16 h. Cells were analyzed for ISG mRNA levels by qRT-PCR relative to RPLP0. Mean expression levels in vehicle-treated (CTRL) cells were set to 1.
The human HaCaT keratinocyte cell line was cultured in DMEM (Sigma) supplemented with 10% FCS (Thermo Fisher). […]
Total RNA from isolated epidermis of mice or from total skin was purified with Trizol, followed by additional purification with the RNeasy Mini Kit, including on-column DNase treatment (Qiagen, Hilden, Germany). […] Relative gene expression was determined using the Roche LightCycler 480 SYBR Green system (Roche, Rotkreuz, Switzerland).

Consider `CCN(CC)CCCC(C)Nc1nc(C)cc(Nc2ccc3nc(C)cc(N)c3c2)n1` (racemic) [NSC23766, 6-N-[2-[5-(diethylamino)pentan-2-ylamino]-6-methylpyrimidin-4-yl]-2-methylquinoline-4,6-diamine, reference compound], for which the “FGF7-mediated ISG downregulation (ISG mRNA relative to Rps29)” value in assay [1] is on record as “partially or even completely rescued the FGF7-mediated ISG downregulation”. In addition, in the assay on HSV-1, the “amount and size of Glyc-D-positive fused cells (immunofluorescence)” value was “strongly reduced the amount of Glyc-D-positive fused cells”; the “Glyc-B DNA levels (viral load, qPCR relative to human β-actin gene)” value is “strongly reduced”.

On to `COc1cc(CCc2cc(NC(=O)c3ccc(N4C[C@@H](C)N[C@@H](C)C4)cc3)n[nH]2)cc(OC)c1` [AZD4547, N-[5-[2-(3,5-dimethoxyphenyl)ethyl]-1H-pyrazol-3-yl]-4-[(3R,5S)-3,5-dimethylpiperazin-1-yl]benzamide, reference compound], for which the “FGF7-mediated ISG downregulation (ISG mRNA relative to Rps29)” value in assay [1] was “The same effect was observed”. Further, in the assay on HSV-1, the “amount and size of Glyc-D-positive fused cells (immunofluorescence)” value is on record as “strongly reduced the amount of Glyc-D-positive fused cells”; the “Glyc-B DNA levels (viral load, qPCR relative to human β-actin gene)” value is given as “inhibited the positive effect of FGF7 on viral replication”.

`CCN1CCN(c2ccc(Nc3cc(N(C)C(=O)Nc4c(Cl)c(OC)cc(OC)c4Cl)ncn3)cc2)CC1` [BGJ398, 3-(2,6-dichloro-3,5-dimethoxyphenyl)-1-[6-[4-(4-ethylpiperazin-1-yl)anilino]pyrimidin-4-yl]-1-methylurea, reference compound]: the “Glyc-B DNA levels (viral load, qPCR relative to human β-actin gene)” value with HSV-1 is listed as “inhibited the positive effect of FGF7 on viral replication”.

Consider “FGF1: member of the FGF family that binds to all FGFRs”, for which the HCV replication entry in the assay with HCV is on record as “does not enhance HCV replication”.

For the molecule FGF2: fibroblast growth factor-2, the HCV replication entry in the assay with HCV is “promoted hepatitis C RNA replication and production of novel particles; also recorded: enhanced viral replication and new particle production, but not infection with the virus”.

For the molecule IFNα, the ISRE-driven luciferase activity entry in assay [2] was “significant increase in luciferase activity”. Further, in the assay on LCMV, the “expression levels of LCMV nucleoprotein (NP) / viral replication” value was “blocked the viral replication”. Further, the “appearance of HSV-1 infected cells (transmission microscopy)” value in the assay on HSV-1 (48 h after infection) is listed as “almost indistinguishable from non-infected cells”. Further, the “viral glycoprotein B (Glyc-B) DNA” value with HSV-1 (HSV-1 MOI=0.5, FGF7 10 ng/ml or IFNα 1000 U/ml) was “had the opposite effect”.

B1: FGF10: recombinant human FGF10, activates FGFR2b and FGFR1b (protein, UniProt O15520 38-208, looked up)
Fibroblast growth factor 10: QALGQDMVSPEATNSSSSSFSSPSSAGRHVRSYNHLQGDVRWRKLFSFTKYFLKIEKNGKVSGTKKENCPYSILEITSVEIGVVAVKAINSNYYLAMNKKGKLYGSKEFNNDCKLKERIEENGYNTYASFNWQHNGRQMYVALNGKGAPRRGQKTRRKNTSAHFLPMVVHS
In the case of B1, the “ISG expression (qRT-PCR relative to RPLP0)” value in assay [3] is reported as “suppressed ISG expression to a similar extent as FGF7”.
